From patent US20250199015A1, “CYCLIN-DEPENDENT KINASE 2 INHIBITORS FOR MEDICAL TREATMENT” (INCYCLIX BIO, LLC, priority 2022, published 2025) come the findings set out here.

The term IC50 denotes the concentration that gives 50% inhibition.

The test system of assay [1] is OVCAR-3 cells. As to the kind of experiment: CellTiter Glo cell proliferation assay. Format: cell-based, human. Conditions: Homo sapiens, OVCAR-3, 144 h; six days. As for the experimental part: Plates were returned to the incubator for six additional days. On day six post dosing, plates were removed and treated with CellTiter Glo reagent following manufacturer's specifications. Plates were incubated 45 minutes at room temperature and run on Biotek luminometer with 1 sec/well detection. Results were converted to Microsoft Excel and transferred to Graphpad Prism for analysis. […] These cell types are distinguished by either gained of cyclin E1 expression or activation (Kuramochi) or intrinsic amplification of cyclin E1 (OVCAR-3, COV318).
In a similar manner, OVCAR-3 cells were grown in RPMI-1640, 1× Glutamax, 10% FBS and 1×ITS at 37° C., 5% CO2. Cells were plated at 500 cells per well in white wall/clear bottom plates and incubated overnight. […] Plates returned to incubator for six additional days. On day six post dosing, plates were removed and treated with CellTiter Glo reagent following manufacturer's specifications. Plates were incubated 45 minutes at room temperature and run on Biotek luminometer with 1 sec/well detection. Results were converted to Microsoft Excel and transferred to GraphPad Prism for analysis.

The test system of another assay is FUOV-1 cells. As to the kind of experiment: CellTiter-Glo cell proliferation assay. Format: cell-based. Conditions: Homo sapiens, 144 h; 6 days; read-out: IC50 in FUOV1 cells. As for the experimental part: The Kuramochi human ovarian carcinoma cell line was grown in RPMI-1640/1× Glutamax/10% fetal bovine serum and the FUOV-1 human ovarian carcinoma cell line was grown in DMEM/F12/1× Glutamax/10% fetal bovine serum and both were plated at 1,000 cells/well in Corning 96 well white wall/clear bottom tissue culture treated plates. […] Plates were removed from incubator at each specified timepoint and treated with CellTiter-Glo (Promega, Inc) following manufacturer specifications. Plates were then read on CLARIOstar luminometer with 1 sec/well integration. Results were converted to Microsoft Excel and transferred to GraphPad Prism for Analysis (FIG. 16A-B).

For assay [2], the system named is OVCAR-3 cells. As to the kind of experiment: Cell cycle by EdU flow cytometry (dose, time, washout, tracing). Conditions: 600 nM. Format: cell-based, human. The protocol:
Cells were plated at 100,000 cells/well in Corning 6 cm tissue culture treated plates. […] Cells were collected and fixed in 1% paraformaldehyde. Cells were incubated with Alexa488 azide dye as described by Thermo Scientific. Cells were then incubated with Fxcycle-violet and RNase. Cells were analyzed on a BD Celesta and data compiled using FloJo and GraphPad.
The OVCAR3 human ovarian carcinoma cell line was grown in RPMI-1640/1× Glutamax/1× Insulin/10% fetal bovine serum and was plated at 300,000 cells/well in Corning 6 cm tissue culture treated plates. […] Cells were treated for the indicated amount of time (24 hours or 48 hours), with 10 μM EdU added for the last hour of treatment. Cells were collected and fixed in 1% paraformaldehyde. Cells were incubated with Alexa 488 (A488) azide dye as described by Thermo Scientific. Cells were then incubated with FarRed dye and RNase. Cells were analyzed on a BD Celesta and data compiled using FloJo and GraphPad Prism (FIG. 13A-B).
The OVCAR3 human ovarian carcinoma cell line was grown in RPMI-1640/1× Glutamax/1× Insulin/10% fetal bovine serum and was plated at 300,000 cells/well in Corning 6 cm tissue culture treated plates. […] At 24 hours, the remaining plates were rinsed with media before un-treated media was added back. Cells were collected at the indicated times, with 10 μM EdU added for the last hour (FIG. 14A). Cells were collected and fixed in 1% paraformaldehyde. Cells were incubated with Pacific blue azide dye as described by Thermo Scientific. Cells were then incubated with FarRed dye and RNase. Cells were analyzed on a BD Celesta and data compiled using FloJo and GraphPad. […] By 18 hours, OVCAR-3 cells were in G2 or reentering G1. Cells appeared to remain somewhat synchronized over 48 hours.
The OVCAR3 human ovarian carcinoma cell line was grown in RPMI-1640/1× Glutamax/1× Insulin/10% fetal bovine serum and was plated at 300,000 cells/well in Corning 6 cm tissue culture treated plates. […] Cells were divided into two sets. The first set was treated for the indicated amount of time, with 10 μM EdU added for the last hour of treatment before being collected. The second set of cells were treated for the indicated amount of time and had EdU added for one hour before the timepoint. Then the media was aspirated, the cells washed, and re-treated with treatment media. The second set of cells was collected at 48 hours, allowing for tracing of the EdU positive cells. Cells were collected and fixed in 1% paraformaldehyde. Cells were incubated with Alexa 488 (A488) azide dye as described by Thermo Scientific. Cells were then incubated with FarRed dye and RNase. Cells were analyzed on a BD Celesta and data compiled using FloJo and GraphPad. […] Several “snap shots” of cells at various timepoints, followed by where the cells from S phase ended up at the end of 48 hours of treatment, were collected. […] It appears that the cells in S phase at after 6 hours of treatment are arresting in G1 (FIG. 15B). At 24 hours of treatment, little to no cells were in S phase so there were no cells to trace (FIG. 15C). Although the DMSO sample appears largely different at 48 hours, the distribution appears similar to the DMSO, EdU free cells at 48 hours. […] (FIG. 15D).
(A flow cytometer gives signals particle by particle.)

The test system of the next assay is H526 cells. As to the kind of experiment: CellTiter Glo cell proliferation assay (single agent and chemotherapy combination). Format: cell-based, human. Conditions: Homo sapiens, NCI-H526, 144 h; six days. The protocol:
Plates returned to incubator for six additional days. On day six post dosing, plates were removed and treated with CellTiter Glo reagent following manufacturer's specifications. Plates incubated 45 minutes at room temperature and run on a Biotek luminometer with 1 sec/well detection. Results were converted to Microsoft Excel and transferred to GraphPad Prism for analysis.
Cells were plated at 250 cells per well in white wall/clear bottom plates and incubated overnight. […] Plates returned to the incubator for six additional days. On day six post dosing, plates were removed and treated with CellTiter Glo reagent following manufacturer's specifications. Plates incubated 45 minutes at room temperature and run on a Biotek luminometer with 1 sec/well detection. Results were converted to Microsoft Excel and transferred to GraphPad Prism for analysis.
Dose curves ranged from 300 pM to 10 μM in triplicate and treatments lasted for 6 days. Plates were removed from incubator at each specified timepoint and treated with CellTiter-Glo (Promega, Inc) following manufacturer specifications. Plates were then read on CLARIOstar luminometer with 1 sec/well integration.
Dose curves ranged from 300 pM to 10 μM in triplicate and treatments lasted for 6 days. Plates were removed from incubator at each specified timepoint and treated with CellTiter-Glo (Promega, Inc) following manufacturer specifications. Plates were then read on CLARIOstar luminometer with 1 sec/well integration. Results were converted to Microsoft Excel and transferred to GraphPad Prism for Analysis.
(ATP-based viability assays read luminescence as a measure of living cells.)

Assay [3] relates to caspase 3/7 in H526 cells. Description: CaspaseGlo-3/7 activation. Format: cell-based, human. Conditions: for IC50: Homo sapiens. As for the experimental part: Plates were removed from incubator and treated with CaspaseGlo-3/7 (Promega, Inc) following manufacturer specifications. Plates were then read on a Biotech luminometer with 1 sec/well integration. Results were converted to Microsoft Excel and transferred to GraphPad Prism for Analysis (FIG. 22D).
Plates were removed from the incubator at each specified timepoint and treated with CaspaseGlo-3/7 (Promega, Inc) following manufacturer specifications. Plates were then read on Biotech luminometer with 1 sec/well integration. Results were converted to Microsoft Excel and transferred to GraphPad Prism for Analysis (FIG. 27A-C).

`COCc1cc(C(=O)Nc2cc([C@H]3CC[C@@H](OC(=O)NC(C)C)C3)[nH]n2)n(C)n1` [PF-07104091, reference compound]: the concentration for half-maximal inhibition (IC50) with OVCAR-3 cells [1] is 294 nM; with FUOV-1 cells it was 80 nM; with H526 cells it was 305 nM; in assay [3] (NCI-H526, 48 h, 48 hours), 1250 nM; in assay [3] (NCI-H526, 72 h, 72 hours) it was 495 nM. For the same compound, the “G1 arrest over 48 h” value in the assay on OVCAR-3 cells [2] was “appears to hold cells in G1 over 48 hours”. Besides, the “caspase 3/7 activation” value in assay [3] (24 hours) was “no appreciable caspase 3/7 activation”.
